Patent publication US9718785B2, “1,3-Disubstituted cyclopentane derivatives” (MERCK PATENT GMBH, priority 2013, dated 2017)

Target: T1, human recombinant full-length fatty acid synthase (FASN) (Homo sapiens, UniProt P49327)
T1 construct: 40 nM human recombinant full-length fatty acid synthase (produced in-house in SF9 cells); made in house; host or cells: SF9 insect cells
Assay: Biochemical activity testing of human fatty acid synthase FASN (NADPH fluorescence intensity enzyme assay)
Details: at 3 μM
From the text: Biochemical Activity Testing of Human Fatty Acid Synthase FASN
Fatty acid synthase FASN is a multifunctional enzyme with seven catalytic activities thereby synthesising long chain fatty acids especially palmitoyl-CoA in the presence of co-factor NADPH starting from the substrates acetyl-CoA and malonyl-CoA. The reductive synthesis is realized by the oxidation of NADPH to NADP. Since NADPH has a high fluorescence intensity quantum yield compared to NADP with excitation at 340 nm and emission at 460 nm, the reaction can be monitored via the decrease in fluorescence intensity. The biochemical FASN activity testing was performed as 384 well two-time-point kinetic fluorescence intensity assay format in Greiner low volume medium binding 384-well black microtiter plates in a total assay volume of 8 μl and was used for high throughput screen. In each well 3 μl 40 nM human recombinant full-length fatty acid synthase (produced in-house in SF9 cells) were dispensed in the following assay buffer: 50 mM potassium phosphate buffer pH 7.0, 0.005% (w/v) BSA, 2 mM Glutathione, 0.02% Tween-20. Then 2 μl of 200 μM NADPH in assay buffer were added, followed by the addition of the test compounds in 10 dilution concentrations starting with 30 μM (final concentration) to get a final DMSO content of 1% (v/v). The mixture was incubated for at least 15 min at room temperature. After the pre-incubation the enzymatic reaction was started by the addition of 2 μl substrate solution (80 μM acetyl-CoA, 240 μM malonyl-CoA). A first fluorescence intensity measurement (time point one) was performed with an Envision multimode reader (Perkin Elmer LAS Germany GmbH) at excitation wavelength 340 nm (lamp mode) and emission wavelength 460 nm. The reaction was incubated for 30 minutes at room temperature. After this the fluorescence intensity was measured again in the Envision using the same parameters as described above (second time point measurement). The data were analysed by subtracting the first time point measurement value from the second time point measurement value (after the enzymatic reaction). The differences of the emission signals were determined. These reflect directly the conversion rate of NADPH. The full value used was the inhibitor-free reaction. A pharmacological zero value was used like GSK837149A (Sigma-Aldrich) in a final concentration of 5-10 μM. The inhibitory values (IC50) were determined using either the program Symyx Assay Explorer® or Condosseo® from GeneData.

T1 sequence (P49327 whole entry): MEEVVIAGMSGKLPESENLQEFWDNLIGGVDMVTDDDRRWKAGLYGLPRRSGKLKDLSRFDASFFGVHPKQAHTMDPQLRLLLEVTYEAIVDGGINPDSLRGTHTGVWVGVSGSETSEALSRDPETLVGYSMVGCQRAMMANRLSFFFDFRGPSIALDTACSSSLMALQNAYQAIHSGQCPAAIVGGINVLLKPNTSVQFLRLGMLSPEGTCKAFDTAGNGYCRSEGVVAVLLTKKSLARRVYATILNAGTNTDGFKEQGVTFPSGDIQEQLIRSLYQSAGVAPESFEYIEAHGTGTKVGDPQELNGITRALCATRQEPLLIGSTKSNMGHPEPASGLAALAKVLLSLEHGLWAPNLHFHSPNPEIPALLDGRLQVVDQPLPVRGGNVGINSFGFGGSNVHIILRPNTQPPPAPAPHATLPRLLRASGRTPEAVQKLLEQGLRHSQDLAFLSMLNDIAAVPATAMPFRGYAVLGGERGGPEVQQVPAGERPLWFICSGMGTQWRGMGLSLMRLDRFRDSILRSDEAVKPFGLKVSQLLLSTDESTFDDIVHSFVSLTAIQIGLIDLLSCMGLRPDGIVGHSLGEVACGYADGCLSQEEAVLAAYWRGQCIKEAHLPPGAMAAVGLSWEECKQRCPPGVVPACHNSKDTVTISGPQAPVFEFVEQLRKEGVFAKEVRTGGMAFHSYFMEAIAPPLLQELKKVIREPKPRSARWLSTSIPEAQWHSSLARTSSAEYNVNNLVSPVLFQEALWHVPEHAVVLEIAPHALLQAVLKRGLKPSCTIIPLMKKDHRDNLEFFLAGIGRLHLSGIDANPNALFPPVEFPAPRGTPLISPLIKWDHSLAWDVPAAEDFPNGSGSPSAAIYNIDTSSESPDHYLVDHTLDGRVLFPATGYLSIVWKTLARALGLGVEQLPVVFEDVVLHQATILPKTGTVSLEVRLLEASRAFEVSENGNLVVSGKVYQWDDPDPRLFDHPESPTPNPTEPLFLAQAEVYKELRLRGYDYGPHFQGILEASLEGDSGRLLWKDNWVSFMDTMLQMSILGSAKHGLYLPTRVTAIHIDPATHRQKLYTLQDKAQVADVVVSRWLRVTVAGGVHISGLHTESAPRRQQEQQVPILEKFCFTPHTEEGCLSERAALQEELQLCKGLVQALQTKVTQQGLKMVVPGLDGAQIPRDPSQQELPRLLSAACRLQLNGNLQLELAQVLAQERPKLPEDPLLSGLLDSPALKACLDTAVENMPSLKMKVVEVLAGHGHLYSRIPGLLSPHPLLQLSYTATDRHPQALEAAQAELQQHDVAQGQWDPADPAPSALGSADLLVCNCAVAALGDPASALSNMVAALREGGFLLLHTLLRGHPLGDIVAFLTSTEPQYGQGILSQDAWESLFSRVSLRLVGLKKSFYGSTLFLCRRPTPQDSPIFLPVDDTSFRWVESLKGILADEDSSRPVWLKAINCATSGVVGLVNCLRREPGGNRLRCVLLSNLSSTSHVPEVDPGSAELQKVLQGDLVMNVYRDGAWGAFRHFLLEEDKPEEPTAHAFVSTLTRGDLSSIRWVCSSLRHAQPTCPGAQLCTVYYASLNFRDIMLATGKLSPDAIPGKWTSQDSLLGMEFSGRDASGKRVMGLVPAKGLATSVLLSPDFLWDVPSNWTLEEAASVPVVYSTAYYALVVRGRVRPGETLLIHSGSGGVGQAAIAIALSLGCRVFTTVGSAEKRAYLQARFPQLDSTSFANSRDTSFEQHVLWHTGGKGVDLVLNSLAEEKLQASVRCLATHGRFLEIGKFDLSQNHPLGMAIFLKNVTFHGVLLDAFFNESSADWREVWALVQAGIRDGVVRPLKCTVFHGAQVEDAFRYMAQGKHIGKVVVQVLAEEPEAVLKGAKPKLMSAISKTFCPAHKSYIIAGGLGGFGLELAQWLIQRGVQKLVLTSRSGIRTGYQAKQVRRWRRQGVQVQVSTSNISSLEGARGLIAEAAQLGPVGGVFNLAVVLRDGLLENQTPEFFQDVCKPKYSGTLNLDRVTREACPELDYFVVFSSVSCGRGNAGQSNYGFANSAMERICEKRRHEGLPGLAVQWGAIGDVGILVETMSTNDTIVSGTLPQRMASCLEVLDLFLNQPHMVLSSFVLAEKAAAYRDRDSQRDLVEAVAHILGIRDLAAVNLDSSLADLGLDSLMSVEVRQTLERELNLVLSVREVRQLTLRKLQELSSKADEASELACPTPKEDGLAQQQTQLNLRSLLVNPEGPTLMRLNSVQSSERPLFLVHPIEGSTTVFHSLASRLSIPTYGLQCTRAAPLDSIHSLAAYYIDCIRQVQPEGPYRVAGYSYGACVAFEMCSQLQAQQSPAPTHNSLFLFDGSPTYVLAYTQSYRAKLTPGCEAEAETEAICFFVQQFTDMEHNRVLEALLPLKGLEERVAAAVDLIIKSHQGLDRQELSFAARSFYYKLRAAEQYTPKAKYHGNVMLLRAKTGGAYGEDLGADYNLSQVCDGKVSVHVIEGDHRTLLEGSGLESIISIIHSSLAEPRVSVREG

Row | Inhibition of FASN (enzyme assay) | Structure (SMILES)
1 | Inhibition: −44% | CC1(NC(=O)[C@H]2CC[C@@H](n3cncc3-c3ccc(-c4cnc5[nH]ccc5c4)cc3)C2)CC1 [Compound A5, (1S,3R)-3-{5-[4-(1H-pyrrolo[2,3-b]pyridin-5-yl)-phenyl]-imidazol-1-yl}-cyclopentanecarboxylic acid (1-methyl-cyclopropyl)-amide]

Same assay, conditions: human recombinant FASN, enzyme assay

Row | Structure (SMILES) | IC50
2 | CC1(NC(=O)[C@H]2CC[C@@H](n3cncc3-c3ccc(-c4cc5cc(F)ccc5[nH]4)cc3)C2)CC1 [Compound A8, (1S,3R)-3-{5-[4-(5-fluoro-1H-indol-2-yl)-phenyl]-imidazol-1-yl}-cyclopentanecarboxylic acid (1-methyl-cyclopropyl)-amide] | 300 to 3000 nM
3 | CC1(NC(=O)[C@H]2CC[C@@H](n3cncc3-c3ccc(-c4ccc(C#N)cc4)cc3)C2)CC1 [Compound A12, (1S,3R)-3-[5-(4′-cyano-biphenyl-4-yl)-imidazol-1-yl]-cyclopentanecarboxylic acid (1-methyl-cyclopropyl)-amide] | 300 to 3000 nM
4 | CCNC(=O)[C@H]1CC[C@@H](n2nncc2-c2ccc(-c3ccc(C#N)cc3)cc2)C1 [Compound A15, (1S,3R)-3-[5-(4′-cyano-biphenyl-4-yl)-[1,2,3]triazol-1-yl]-cyclopentanecarboxylic acid ethylamide] | < 300 nM
5 | CCNC(=O)[C@H]1CC[C@@H](n2nncc2-c2ccc(-c3ccc4cc[nH]c4c3)cc2)C1 [Compound A16, (1S,3R)-3-{5-[4-(1H-indol-6-yl)-phenyl]-[1,2,3]triazol-1-yl}-cyclopentanecarboxylic acid ethylamide] | < 300 nM
6 | CCC(=O)N[C@H]1CC[C@@H](n2cncc2-c2ccc(-c3nc4ccccc4o3)cc2)C1 [Compound A19, N-{(1S,3R)-3-[5-(4-benzoxazol-2-yl-phenyl)-imidazol-1-yl]-cyclopentyl}-propionamide] | < 300 nM
7 | CCC(=O)N[C@H]1CC[C@@H](n2cncc2-c2ccc(-c3nc4ccccc4s3)cc2)C1 [Compound A20, N-{(1S,3R)-3-[5-(4-benzothiazol-2-yl-phenyl)-imidazol-1-yl]-cyclopentyl}-propionamide] | < 300 nM
8 | CCC(=O)N[C@H]1CC[C@@H](n2cncc2-c2ccc(-c3ccc(Cl)cc3)cc2)C1 [Compound A21, N-{(1S,3R)-3-[5-(4′-chloro-biphenyl-4-yl)-imidazol-1-yl]-cyclopentyl}-propionamide] | < 300 nM
9 | CCC(=O)N[C@H]1CC[C@@H](n2cncc2-c2ccc(-c3cccc4[nH]ncc34)cc2)C1 [Compound A22, N-((1S,3R)-3-{5-[4-(1H-indazol-4-yl)-phenyl]-imidazol-1-yl}-cyclopentyl)-propionamide] | < 300 nM
10 | CC(=O)N[C@H]1CC[C@@H](n2nncc2-c2ccc(-c3nc4ccccc4o3)cc2)C1 [Compound A24, N-{(1S,3R)-3-[5-(4-benzoxazol-2-yl-phenyl)-[1,2,3]triazol-1-yl]-cyclopentyl}-acetamide] | < 300 nM
11 | CCC(=O)N[C@H]1CC[C@@H](n2nncc2-c2ccc(-c3ccc(Cl)cc3)cc2)C1 [Compound A25, N-{(1S,3R)-3-[5-(4′-chloro-biphenyl-4-yl)-[1,2,3]triazol-1-yl]-cyclopentyl}-propionamide] | < 300 nM
12 | CCC(=O)N[C@H]1CC[C@@H](n2nncc2-c2ccc(-c3cccc4[nH]ncc34)cc2)C1 [Compound A26, N-((1S,3R)-3-{5-[4-(1H-indazol-4-yl)-phenyl]-[1,2,3]triazol-1-yl}-cyclopentyl)-propionamide] | < 300 nM
13 | CCC(=O)N[C@H]1CC[C@@H](n2nncc2-c2ccc(-c3ccc4[nH]ccc4c3)cc2)C1 [Compound A27, N-((1S,3R)-3-{5-[4-(1H-indol-5-yl)-phenyl]-[1,2,3]triazol-1-yl}-cyclopentyl)-propionamide] | < 300 nM
14 | CCC(=O)N[C@H]1CC[C@@H](n2nncc2-c2ccc(-c3nc4ccccc4s3)cc2)C1 [Compound A28, N-{(1S,3R)-3-[5-(4-benzothiazol-2-yl-phenyl)-[1,2,3]triazol-1-yl]-cyclopentyl}-propionamide] | < 300 nM

Further lines, results first:

Row | IC50 | Structure (SMILES)
15 | < 300 nM | CCNC(=O)[C@H]1CC[C@@H](n2cncc2-c2ccc(-c3nc4ccccc4o3)cc2)C1 [Compound A1, (1S,3R)-3-[5-(4-benzooxazol-2-yl-phenyl)-imidazol-1-yl]-cyclopentanecarboxylic acid ethylamide]
16 | < 300 nM | CCNC(=O)[C@H]1CC[C@@H](n2cncc2-c2ccc(-c3ccccc3)cc2)C1 [Compound A2, (1S,3R)-3-(5-biphenyl-4-yl-imidazol-1-yl)-cyclopentanecarboxylic acid ethylamide]
17 | < 300 nM | CCNC(=O)[C@H]1CC[C@@H](n2cncc2-c2ccc(-c3ccc(Cl)cc3)cc2)C1 [Compound A3, (1S,3R)-3-[5-(4′-Chloro-biphenyl-4-yl)-imidazol-1-yl]-cyclopentanecarboxylic acid ethylamide]
18 | < 300 nM | CC1(NC(=O)[C@H]2CC[C@@H](n3cncc3-c3ccc(-c4nc5ccccc5o4)cc3)C2)CC1 [Compound A4, (1S,3R)-3-[5-(4-benzoxazol-2-yl-phenyl)-imidazol-1-yl]-cyclopentanecarboxylic acid (1-methyl-cyclopropyl)-amide]
19 | < 300 nM | CC1(NC(=O)[C@H]2CC[C@@H](n3cncc3-c3ccc(-c4ccc5ncsc5c4)cc3)C2)CC1 [Compound A6, (1S,3R)-3-[5-(4-benzothiazol-6-yl-phenyl)-imidazol-1-yl]-cyclopentanecarboxylic acid (1-methyl-cyclopropyl)-amide amide]
20 | < 300 nM | CC1(NC(=O)[C@H]2CC[C@@H](n3cncc3-c3ccc(-c4ccc5cc[nH]c5c4)cc3)C2)CC1 [Compound A7, (1S,3R)-3-{5-[4-(1H-indol-6-yl)-phenyl]-imidazol-1-yl}-cyclopentanecarboxylic acid (1-methyl-cyclopropyl)-amide]
21 | < 300 nM | CC1(NC(=O)[C@H]2CC[C@@H](n3cncc3-c3ccc(-c4ccc5[nH]nnc5c4)cc3)C2)CC1 [Compound A9, (1S,3R)-3-{5-[4-(1H-benzotriazol-5-yl)-phenyl]-imidazol-1-yl}-cyclopentanecarboxylic acid (1-methyl-cyclopropyl)-amide]
22 | < 300 nM | CC1(NC(=O)[C@H]2CC[C@@H](n3cncc3-c3ccc(-c4ccc5[nH]ccc5c4)cc3)C2)CC1 [Compound A10, (1S,3R)-3-{5-[4-(1H-indol-5-yl)-phenyl]-imidazol-1-yl}-cyclopentanecarboxylic acid (1-methyl-cyclopropyl)-amide]
23 | < 300 nM | CC1(NC(=O)[C@H]2CC[C@@H](n3cncc3-c3ccc(-c4cccc5[nH]ncc45)cc3)C2)CC1 [Compound A11, (1S,3R)-3-{5-[4-(1H-indazol-4-yl)-phenyl]-imidazol-1-yl}-cyclopentanecarboxylic acid (1-methyl-cyclopropyl)-amide]
24 | < 300 nM | CCNC(=O)[C@H]1CC[C@@H](n2nncc2-c2ccc(-c3nc4ccccc4o3)cc2)C1 [Compound A13, (1S,3R)-3-[5-(4-benzoxazol-2-yl-phenyl)-[1,2,3]triazol-1-yl]-cyclopentanecarboxylic acid ethylamide]
25 | < 300 nM | CCNC(=O)[C@H]1CC[C@@H](n2nncc2-c2ccc(-c3ccc(Cl)cc3)cc2)C1 [Compound A14, (1S,3R)-3-[5-(4′-chloro-biphenyl-4-yl)-[1,2,3]triazol-1-yl]-cyclopentanecarboxylic acid ethylamide]
